Assay results published in patent publication US6413935B1, “Induction of immune response against desired determinants” (priority 1993, dated 2002).
Where two headings read alike, the source gives them in different places. Non-standard residues stand in square brackets, D forms with d. Residues, ends and D or L forms follow the SMILES beside them. Cha = N[C@@H](CC1CCCCC1)C(=O)O

Experiments:
DR5 = conditions: read-out: PADRE Class II Binding Affinities DR5
DQ3.1 = conditions: for IC50: read-out: PADRE Class II Binding Affinities, Table VIII A
DR7 = conditions: read-out: PADRE Class II Binding Affinities DR7

Row | SMILES | IC50 (DR5; Table VIII A) | IC50 (DQ3.1) | IC50 (DR7; Table VIII A) | other results
1 | CC(C)C[C@H](NC(=O)[C@@H](NC(=O)[C@H](C)NC(=O)[C@H](C)NC(=O)[C@H](C)NC(=O)[C@H](C)NC(=O)[C@H](CC1CCCCC1)NC(=O)[C@H](C)NC(=O)[C@@H](C)N)[C@@H](C)O)C(=O)N[C@@H](CCC(=O)O)C(=O)N[C@@H](C)C(=O)N[C@@H](C)C(=O)N[C@H](C)C(N)=O [Peptide 906.35] | 10.5 nM | 39.5 nM |  | 
2 | CC(C)C[C@H](NC(=O)[C@@H](NC(=O)[C@H](C)NC(=O)[C@H](C)NC(=O)[C@H](C)NC(=O)[C@H](C)NC(=O)[C@H](CC1CCCCC1)NC(=O)[C@H](C)NC(=O)[C@@H](C)N)[C@@H](C)O)C(=O)N[C@@H](CCCCN)C(=O)N[C@@H](CCCCN)C(=O)N[C@@H](C)C(=O)N[C@H](C)C(N)=O [Peptide 906.40] (H-[dA]A[Cha]AAAATLKKA[dA]-NH2; N-terminus and C-terminus assumed) | 16.7 nM | 36.6 nM | 556 nM | 
3 | CC(C)C[C@H](NC(=O)[C@@H](NC(=O)[C@H](C)NC(=O)[C@H](C)NC(=O)[C@H](C)NC(=O)[C@H](C)NC(=O)[C@H](CC1CCCCC1)NC(=O)[C@H](C)NC(=O)[C@@H](C)N)[C@@H](C)O)C(=O)N[C@@H](CCC(N)=O)C(=O)N[C@@H](C)C(=O)N[C@@H](C)C(=O)N[C@H](C)C(N)=O [Peptide 906.36] | 8.3 nM | 23.7 nM |  | 
4 | CC[C@H](C)[C@H](NC(=O)[C@H](CCCCN)NC(=O)[C@H](CC(C)C)NC(=O)[C@@H](NC(=O)[C@H](C)NC(=O)[C@H](C)NC(=O)[C@H](C)NC(=O)[C@H](C)NC(=O)[C@H](CC1CCCCC1)NC(=O)[C@H](C)NC(=O)[C@@H](C)N)[C@@H](C)O)C(=O)N[C@@H](C)C(=O)N[C@H](C)C(N)=O [Peptide 906.45] (H-[dA]A[Cha]AAAATLKIA[dA]-NH2; N-terminus and C-terminus assumed) | 28.2 nM | 56.2 nM | 25 nM | 
5 | CC(C)C[C@H](NC(=O)[C@@H](NC(=O)[C@@H](NC(=O)[C@H](C)NC(=O)[C@H](C)NC(=O)[C@H](C)NC(=O)[C@H](CC1CCCCC1)NC(=O)[C@H](C)NC(=O)[C@@H](C)N)[C@@H](C)O)[C@@H](C)O)C(=O)N[C@@H](CCCCN)C(=O)N[C@@H](C)C(=O)N[C@@H](C)C(=O)N[C@H](C)C(N)=O [Peptide 906.28] | 5 nM | 28.5 nM | 69.4 nM | 
6 | C[C@H](NC(=O)[C@H](C)NC(=O)[C@H](C)NC(=O)[C@H](CC1CCCCC1)NC(=O)[C@H](C)NC(=O)[C@@H](C)N)C(=O)N[C@@H](C)C(=O)N[C@H](C(=O)N[C@@H](CCC(N)=O)C(=O)N[C@@H](CCCCN)C(=O)N[C@@H](C)C(=O)N[C@@H](C)C(=O)N[C@H](C)C(N)=O)[C@@H](C)O [Peptide 906.31] | 11.8 nM | 52.6 nM | 100 nM | 
7 | CC(C)C[C@H](NC(=O)[C@@H](NC(=O)[C@H](CCCCN)NC(=O)[C@H](C)NC(=O)[C@H](C)NC(=O)[C@H](C)NC(=O)[C@H](CC1CCCCC1)NC(=O)[C@H](C)NC(=O)[C@@H](C)N)[C@@H](C)O)C(=O)N[C@@H](CCCCN)C(=O)N[C@@H](C)C(=O)N[C@@H](C)C(=O)N[C@H](C)C(N)=O [Peptide 906.23] |  | 26.1 nM |  | IC50 (DR5): 2.2 nM; IC50 (DR7): 29.6 nM
8 | CC(C)C[C@H](NC(=O)[C@@H](NC(=O)[C@H](C)NC(=O)[C@@H](NC(=O)[C@H](C)NC(=O)[C@H](C)NC(=O)[C@H](CC1CCCCC1)NC(=O)[C@H](C)NC(=O)[C@@H](C)N)C(C)C)[C@@H](C)O)C(=O)N[C@@H](CCCCN)C(=O)N[C@@H](C)C(=O)N[C@@H](C)C(=O)N[C@H](C)C(N)=O [Peptide 906.21] (H-[dA]A[Cha]AAVATLKAA[dA]-NH2; N-terminus and C-terminus assumed) | 3.2 nM |  | 42.4 nM | 
9 | CC(C)C[C@H](NC(=O)[C@@H](NC(=O)[C@H](C)NC(=O)[C@H](C)NC(=O)[C@H](C)NC(=O)[C@H](C)NC(=O)[C@H](CC1CCCCC1)NC(=O)[C@H](C)NC(=O)[C@@H](C)N)[C@@H](C)O)C(=O)N[C@@H](CCCCN)C(=O)N[C@H](C(=O)N[C@@H](C)C(=O)N[C@H](C)C(N)=O)C(C)C [Peptide 906.43] (H-[dA]A[Cha]AAAATLKVA[dA]-NH2; N-terminus and C-terminus assumed) | 9.5 nM | 24.7 nM | 49 nM | 
10 | CC[C@H](C)[C@H](NC(=O)[C@@H](NC(=O)[C@H](C)NC(=O)[C@H](C)NC(=O)[C@H](C)NC(=O)[C@H](C)NC(=O)[C@H](CC1CCCCC1)NC(=O)[C@H](C)NC(=O)[C@@H](C)N)[C@@H](C)O)C(=O)N[C@@H](CCCCN)C(=O)N[C@@H](C)C(=O)N[C@@H](C)C(=O)N[C@H](C)C(N)=O [Peptide 906.34] | 3.1 nM | 30.5 nM | 55.6 nM | 
11 | CC(C)C[C@H](NC(=O)[C@@H](NC(=O)[C@H](C)NC(=O)[C@H](C)NC(=O)[C@H](C)NC(=O)[C@H](C)NC(=O)[C@H](CC1CCCCC1)NC(=O)[C@H](C)NC(=O)[C@@H](C)N)[C@@H](C)O)C(=O)N[C@@H](CCCNC(=N)N)C(=O)N[C@@H](C)C(=O)N[C@@H](C)C(=O)N[C@H](C)C(N)=O [Peptide 906.39] (H-[dA]A[Cha]AAAATLRAA[dA]-NH2; N-terminus and C-terminus assumed) |  | 28.8 nM |  | IC50 (DR5): 4.3 nM; IC50 (DR7): 86.2 nM
12 | CC(C)C[C@H](NC(=O)[C@@H](NC(=O)[C@H](C)NC(=O)[C@H](C)NC(=O)[C@H](C)NC(=O)[C@H](C)NC(=O)[C@H](CC1CCCCC1)NC(=O)[C@H](C)NC(=O)[C@@H](C)N)[C@@H](C)O)C(=O)N[C@@H](CCCCN)C(=O)N[C@@H](Cc1ccccc1)C(=O)N[C@@H](C)C(=O)N[C@H](C)C(N)=O [Peptide 906.44] (H-[dA]A[Cha]AAAATLKFA[dA]-NH2; N-terminus and C-terminus assumed) | 104 nM |  | 25 nM | 
13 | CC(C)C[C@H](NC(=O)[C@@H](NC(=O)[C@H](Cc1c[nH]cn1)NC(=O)[C@H](C)NC(=O)[C@H](CCCCN)NC(=O)[C@@H](NC(=O)[C@H](CC1CCCCC1)NC(=O)[C@H](CCCCN)NC(=O)[C@@H](C)N)C(C)C)[C@@H](C)O)C(=O)N[C@@H](CCCCN)C(=O)N[C@@H](C)C(=O)N[C@@H](C)C(=O)N[C@H](C)C(N)=O [Peptide 965.071] |  |  |  | IC50 (DR5; Table IX): 10.5 nM; IC50 (DR5; Table IX, listed as 965.072): 4.8 nM; IC50 (DR7; Table IX, listed as 965.072): 556 nM
14 | CC(C)C[C@H](NC(=O)[C@@H](NC(=O)[C@H](CCC(N)=O)NC(=O)[C@H](C)NC(=O)[C@H](C)NC(=O)[C@H](C)NC(=O)[C@H](CC1CCCCC1)NC(=O)[C@H](C)NC(=O)[C@@H](C)N)[C@@H](C)O)C(=O)N[C@@H](CCCCN)C(=O)N[C@@H](C)C(=O)N[C@@H](C)C(=O)N[C@H](C)C(N)=O [Peptide 906.25] | 3 nM | 42.5 nM |  | 
15 | C[C@H](NC(=O)[C@H](C)NC(=O)[C@H](C)NC(=O)[C@H](CC1CCCCC1)NC(=O)[C@H](C)NC(=O)[C@@H](C)N)C(=O)N[C@@H](C)C(=O)N[C@H](C(=O)N[C@@H](CCCCN)C(=O)N[C@@H](CCCCN)C(=O)N[C@@H](C)C(=O)N[C@@H](C)C(=O)N[C@H](C)C(N)=O)[C@@H](C)O [Peptide 906.29] (H-[dA]A[Cha]AAAATKKAA[dA]-NH2; N-terminus and C-terminus assumed) | 7.7 nM | 283 nM |  | Increase in DQ3.1 binding reactivity (DQ3.1; relative to parent 760.57): no reactivity was gained
16 | CC(C)C[C@H](NC(=O)[C@@H](NC(=O)[C@H](CC(N)=O)NC(=O)[C@H](C)NC(=O)[C@H](Cc1c[nH]c2ccccc12)NC(=O)[C@@H](NC(=O)[C@H](CC1CCCCC1)NC(=O)[C@H](CCCCN)NC(=O)[C@@H](C)N)C(C)C)[C@@H](C)O)C(=O)N[C@@H](CCCCN)C(=O)N[C@@H](C)C(=O)N[C@@H](C)C(=O)N[C@H](C)C(N)=O [Peptide 965.031] |  |  |  | IC50 (DR5; Table IX): 8.3 nM; IC50 (DR5; Table IX, listed as 965.032): 2.9 nM; IC50 (DR7; Table IX): 208 nM
17 | CC(C)C[C@H](NC(=O)[C@@H](NC(=O)[C@H](C)NC(=O)[C@H](C)NC(=O)[C@H](C)NC(=O)[C@H](C)NC(=O)[C@H](CC1CCCCC1)NC(=O)[C@H](C)NC(=O)[C@@H](C)N)[C@@H](C)O)C(=O)N[C@@H](Cc1ccccc1)C(=O)N[C@@H](C)C(=O)N[C@@H](C)C(=O)N[C@H](C)C(N)=O [Peptide 906.38] | 19.2 nM |  | 56.8 nM | 
18 | CC(C)C[C@H](NC(=O)[C@@H](NC(=O)[C@H](C)NC(=O)[C@H](C)NC(=O)[C@H](C)NC(=O)[C@H](C)NC(=O)[C@H](CC1CCCCC1)NC(=O)[C@H](C)NC(=O)[C@@H](C)N)[C@@H](C)O)C(=O)N[C@@H](CCCCN)C(=O)N[C@@H](CCC(=O)O)C(=O)N[C@@H](C)C(=O)N[C@H](C)C(N)=O [Peptide 906.41] (H-[dA]A[Cha]AAAATLKEA[dA]-NH2; N-terminus and C-terminus assumed) |  |  | 252 nM | 
19 | CC(C)C[C@H](NC(=O)[C@@H](NC(=O)[C@H](C)NC(=O)[C@H](C)NC(=O)[C@H](C)NC(=O)[C@H](C)NC(=O)[C@H](CC1CCCCC1)NC(=O)[C@H](C)NC(=O)[C@@H](C)N)[C@@H](C)O)C(=O)N[C@@H](CCCCN)C(=O)N[C@@H](C)C(=O)N[C@@H](CCC(=O)O)C(=O)N[C@H](C)C(N)=O [Peptide 906.47] (H-[dA]A[Cha]AAAATLKAE[dA]-NH2; N-terminus and C-terminus assumed) | 25.5 nM | 60.2 nM |  | 
20 | CC(C)C[C@H](NC(=O)[C@@H](NC(=O)[C@H](C)NC(=O)[C@H](C)NC(=O)[C@H](C)NC(=O)[C@H](C)NC(=O)[C@H](CC1CCCCC1)NC(=O)[C@H](C)NC(=O)[C@@H](C)N)[C@@H](C)O)C(=O)N[C@@H](CCCCN)C(=O)N[C@@H](CCC(N)=O)C(=O)N[C@@H](C)C(=O)N[C@H](C)C(N)=O [Peptide 906.42] (H-[dA]A[Cha]AAAATLKQA[dA]-NH2; N-terminus and C-terminus assumed) | 29.4 nM | 484 nM |  | 
